Data as given in paper PMC10935503 (Acta Pharmaceutica Sinica. B, 2023).

Columns and labels:
HIV-1 WT strain (IIIB) = experiment: Anti-HIV-1 activity in MT-4 cells, MTT method, WT strain IIIB; format: cell-based; settings: Human immunodeficiency virus 1, IIIB, MT4, read-out: EC50 IIIB
[1] = Cytotoxicity in mock-infected MT-4 cells, MTT method; format: cell-based; settings: human
HIV-1 RT = HIV-1 RT (Human immunodeficiency virus type 1 group M subtype B, UniProt P03366); experiment: HIV-1 RT inhibition assay; format: biochemical
HIV-1 E138K = experiment: microbe, parasite or virus in culture; format: cell-based; settings: for EC50: Human immunodeficiency virus 1, MT4, read-out: EC50 E138K; for RF E138K: resistance fold, EC50 (mutant strain)/EC50 (WT strain); for SI E138K: selectivity index, ratio of CC50/EC50
[2] = tested on: HIV-1 K103N + Y181C (RES056); experiment: microbe, parasite or virus in culture; format: cell-based; settings: for EC50: Human immunodeficiency virus 1, MT4, read-out: EC50 RES056; for RF RES056: resistance fold, EC50 (mutant strain)/EC50 (WT strain); for SI RES056: selectivity index, ratio of CC50/EC50
HIV-1 K103N = experiment: microbe, parasite or virus in culture; format: cell-based; settings: for EC50: Human immunodeficiency virus 1, MT4, read-out: EC50 K103N; for RF K103N: resistance fold, EC50 (mutant strain)/EC50 (WT strain); for SI K103N: selectivity index, ratio of CC50/EC50
HIV-1 F227L + V106A = experiment: microbe, parasite or virus in culture; format: cell-based; settings: for EC50: Human immunodeficiency virus 1, MT4, read-out: EC50 F227L + V106A; for RF F227L + V106A: resistance fold, EC50 (mutant strain)/EC50 (WT strain); for SI F227L + V106A: selectivity index, ratio of CC50/EC50
HIV-1 L100I = experiment: microbe, parasite or virus in culture; format: cell-based; settings: for EC50: Human immunodeficiency virus 1, MT4, read-out: EC50 L100I; for RF L100I: resistance fold, EC50 (mutant strain)/EC50 (WT strain); for SI L100I: selectivity index, ratio of CC50/EC50
HIV-1 Y181C = experiment: microbe, parasite or virus in culture; format: cell-based; settings: for EC50: Human immunodeficiency virus 1, MT4, read-out: EC50 Y181C; for RF Y181C: resistance fold, EC50 (mutant strain)/EC50 (WT strain); for SI Y181C: selectivity index, ratio of CC50/EC50
HIV-1 Y188L = experiment: microbe, parasite or virus in culture; format: cell-based; settings: for EC50: Human immunodeficiency virus 1, MT4, read-out: EC50 Y188L; for RF Y188L: resistance fold, EC50 (mutant strain)/EC50 (WT strain); for SI Y188L: selectivity index, ratio of CC50/EC50

| SMILES | EC50 (HIV-1 WT strain (IIIB)) [nM] | CC50 at 5 days [1] [nM] | EC50 (HIV-1 E138K) [nM] | RF E138K (HIV-1 E138K) | SI E138K (HIV-1 E138K) | EC50 [2] [nM] | RF RES056 [2] | SI RES056 [2] | EC50 (HIV-1 K103N) [nM] | RF K103N (HIV-1 K103N) | SI K103N (HIV-1 K103N) | EC50 (HIV-1 F227L + V106A) [nM] | RF F227L + V106A (HIV-1 F227L + V106A) | SI F227L + V106A (HIV-1 F227L + V106A) | EC50 (HIV-1 L100I) [nM] | RF L100I (HIV-1 L100I) | SI L100I (HIV-1 L100I) | EC50 (HIV-1 Y181C) [nM] | RF Y181C (HIV-1 Y181C) | EC50 (HIV-1 Y188L) [nM] | other results |
| --- | --- | --- | --- | --- | --- | --- | --- | --- | --- | --- | --- | --- | --- | --- | --- | --- | --- | --- | --- | --- | --- |
| Cc1cc(/C=C/C#N)cc(C)c1Oc1nc(Nc2ccc(C#N)cc2)nc2c1SCCC2 [15b, (E)-4-((4-(4-(2-Cyanovinyl)-2,6-dimethylphenoxy)-7,8-dihydro-6H-thiopyrano[3,2-d]pyrimidin-2-yl)amino)benzonitrile] | 3.18 ± 1.21 | 4890 ± 620 | 21.7 ± 7.55 | 6.8 | 225 | 23.5 ± 14.7 | 7.4 | 208 | 6.42 ± 0.4 | 2.0 | 762 | 27.9 ± 9.17 | 8.8 | 175 | 7.26 ± 0.51 | 2.3 | 674 | 11.1 ± 3.39 | 3.5 | 23.3 ± 0.48 | IC50 (HIV-1 RT): 101 ± 12 nM; Times greater activity than ETR, L100I (HIV-1 L100I; ratio of EC50 values vs ETR): 1.3 times; SI Y181C (HIV-1 Y181C): 441; RF Y188L (HIV-1 Y188L): 7.3; SI Y188L (HIV-1 Y188L): 210 |
| Cc1cc(C)c(Oc2nc(NC3CCN(Cc4ccc(S(N)(=O)=O)cc4)CC3)nc3c2SCCC3)c(C)c1 [23i, 4-((4-((4-(Mesityloxy)-7,8-dihydro-6H-thiopyrano[3,2-d]pyrimidin-2-yl)amino)piperidin-1-yl)methyl)benzenesulfonamide] | 5.43 ± 4.4 | ≥ 226000 | 37.6 ± 7.41 | 6.9 | ≥ 6011 | 442 ± 272 | 81.4 | ≥ 511 | 6.56 ± 1.07 | 1.2 | ≥ 34,451 | 64.7 ± 13.3 | 11.9 | ≥ 3493 | 39.2 ± 7.66 | 7.2 | ≥ 5765 | 35.7 ± 5.75 | 6.6 | 43 ± 0.26 | SI Y181C (HIV-1 Y181C): ≥ 6331; RF Y188L (HIV-1 Y188L): 7.9; SI Y188L (HIV-1 Y188L): ≥ 5256 |
| Cc1cc(C#N)cc(C)c1Oc1nc(NC2CCN(c3cccc(C(N)=O)c3)CC2)nc2c1SCCC2 [27b, 3-(4-((4-(4-Cyano-2,6-dimethylphenoxy)-7,8-dihydro-6H-thiopyrano[3,2-d]pyrimidin-2-yl)amino)piperidin-1-yl)benzamide] | 3.76 ± 2.29 | 5990 ± 2950 | 17.1 ± 4.42 | 4.5 | 350 | 24.5 ± 8.11 | 6.5 | 244 | 5.46 | 1.5 | 1097 | 111 ± 11.4 | 29.5 | 54 | 13.3 ± 6.79 | 3.5 | 450 | 7.87 ± 1.84 | 2.1 | 7.14 ± 1.5 | SI Y181C (HIV-1 Y181C): 761; RF Y188L (HIV-1 Y188L): 1.9; SI Y188L (HIV-1 Y188L): 839 |
| O=C1Nc2ccc(Cl)cc2[C@@](C#CC2CC2)(C(F)(F)F)O1 [EFV, efavirenz, reference compound] | 2.67 ± 1.73 | > 6340 | 4.67 ± 1.38 | – | – | 114 ± 55.6 | – | – | 99.2 ± 56.8 | – | – | 77.4 ± 55.9 | – | – | 57.4 ± 45.9 | – | – | 4.94 ± 1.75 | – | 93.2 ± 58.9 | – |
